Where two headings read alike, the source gives them in different places.
Tests used:
[1] = tested on: bradykinin-induced nociceptive stimulus; experiment: Test for analgesic activity (bradykinin-induced nociceptive stimulus, oral administration); assay type: in vivo, female Hartley guinea pigs; conditions: Cavia porcellus, read-out: ID50 Analgesic Activity
Description: This test employs a bradykinin-induced nociceptive stimulus and is a partially modified version of the test described by Deffenu [J. Pharm. Pharmac. […] The test animals were female Hartley guinea pigs having a body weight of from 350 g to 400 g. The guinea pigs were divided into groups, each group containing from 5 to 10 animals. The test animals were cannulated into the carotid artery retrogradely under the anesthesia induced by intraperitoneal injection of 20 mg/kg of pentobarbital. The guinea pigs were allowed to recover from the anesthesia for at least 3 hours before the tests commenced.
The test compounds listed in the following Table 1 were administered orally. Immediately before administration of each test compound and then 15, 30, 60, 90 and 120 minutes after administration, each guinea pig was administered with 0.5 μg of bradykinin through the cannula. Turning of the head or twisting of the front legs upon injection was taken as a sign of nociceptive response. The test compounds were administered at various doses and the inhibition rate was determined accordingly.
(§1) For both of the above tests, the ID50 was calculated by the method of Litchfield and Wilcoxon [J. Pharmacol. Exptl. Therap.

[2] = tested on: carrageenin-induced oedema of the right hind paw; experiment: Test for anti-inflammatory activity (carrageenin-induced paw oedema, oral administration); assay type: in vivo, Male Wistar-Imamichi rats; conditions: Rattus norvegicus, read-out: ID50 Anti-inflammatory Activity
Description: Male Wistar-Imamichi rats, each weighing approximately 150 g, were used in these experiments and were divided into groups, each containing 5 animals. Each of the test compounds listed in Table 1 was administered orally, at various doses, to the rats and then, 30 minutes after oral administration,0.05 ml of a 1% w/v carrageenin suspension was subcutaneously injected into the sole of the right hind paw to induce oedema. The volume of the paw was measured both before and 3 hours after injection of the carrageenin by the method of Winder et al [Arch. Int. Pharmacodyn. […] The difference between the volume of the paw before and after injection was defined as the oedema intensity.
as §1

[3] = per os, guinea pigs, 0.5 μg bradykinin via carotid cannula before and 15, 30, 60, 90 and 120 min after dosing, Litchfield and Wilcoxon
[4] = per os, rats, 0.05 ml of 1% w/v carrageenin 30 min after dosing, paw volume 3 hours after injection, Litchfield and Wilcoxon

Row | Compound | ED50 [1] | ED50 [2] | ED50 [1, 3] | ED50 [2, 4]
1 | CC(=O)Oc1ccccc1C(=O)O [Aspirin, reference compound] | 280 mg/kg | 145 mg/kg | – | –
2 | Clc1ccc2c(Nc3ccccc3)ncnc2c1 [Compound 5, 4-Anilino-7-chloroquinazoline] | – | – | 25 mg/kg | 28 mg/kg
3 | FC(F)(F)c1ccc2c(Nc3ccccc3)ncnc2c1 [Compound 17, 4-Anilino-7-trifluoromethylquinazoline] | – | – | 16.5 mg/kg | 20 mg/kg
4 | CN(c1ccccc1)c1ncnc2cc(Cl)ccc12 [Compound 55, 7-Chloro-4-(N-methylanilino)quinazoline] | – | – | 50 mg/kg | 36 mg/kg
5 | CN(c1ccccc1)c1ncnc2cc(C(F)(F)F)ccc12 [Compound 73, 4-(N-Methylanilino)-7-trifluoromethylquinazoline] | – | – | 31 mg/kg | 15.5 mg/kg
6 | Cc1cccc(Nc2ccccc2C(=O)O)c1C [Mefenamic acid, reference compound] | – | – | 72 mg/kg | 50 mg/kg
